From patent publication US10072001B2, “Tank-binding kinase inhibitor compounds” (Gilead Sciences, Inc., priority 2014, dated 2018)
pIC50: −log10 of the molar value.

What was measured:
IKKε = IKKε (Homo sapiens (Human), UniProt Q14164); experiment: TR-FRET kinase assay, IKKε; assay type: biochemical; settings: full length recombinant IKKε 0.3 nM, 2x Km ATP, 1 μM peptide, 240 min at 25° C.; geometric mean of minimum four determinations
Description: Biological Assay for TBK1 and IKKs:

TBK1 = TBK1 (Homo sapiens (Human), UniProt Q9UHD2); experiment: TR-FRET kinase assay, TBK1; settings: read-out: TBK1-IC50; full length recombinant TBK1 2.5 nM, 2x Km ATP, 1 μM peptide, 240 min at 25° C.; geometric mean of minimum four determinations
Sequence of TBK1 (Q9UHD2 whole entry): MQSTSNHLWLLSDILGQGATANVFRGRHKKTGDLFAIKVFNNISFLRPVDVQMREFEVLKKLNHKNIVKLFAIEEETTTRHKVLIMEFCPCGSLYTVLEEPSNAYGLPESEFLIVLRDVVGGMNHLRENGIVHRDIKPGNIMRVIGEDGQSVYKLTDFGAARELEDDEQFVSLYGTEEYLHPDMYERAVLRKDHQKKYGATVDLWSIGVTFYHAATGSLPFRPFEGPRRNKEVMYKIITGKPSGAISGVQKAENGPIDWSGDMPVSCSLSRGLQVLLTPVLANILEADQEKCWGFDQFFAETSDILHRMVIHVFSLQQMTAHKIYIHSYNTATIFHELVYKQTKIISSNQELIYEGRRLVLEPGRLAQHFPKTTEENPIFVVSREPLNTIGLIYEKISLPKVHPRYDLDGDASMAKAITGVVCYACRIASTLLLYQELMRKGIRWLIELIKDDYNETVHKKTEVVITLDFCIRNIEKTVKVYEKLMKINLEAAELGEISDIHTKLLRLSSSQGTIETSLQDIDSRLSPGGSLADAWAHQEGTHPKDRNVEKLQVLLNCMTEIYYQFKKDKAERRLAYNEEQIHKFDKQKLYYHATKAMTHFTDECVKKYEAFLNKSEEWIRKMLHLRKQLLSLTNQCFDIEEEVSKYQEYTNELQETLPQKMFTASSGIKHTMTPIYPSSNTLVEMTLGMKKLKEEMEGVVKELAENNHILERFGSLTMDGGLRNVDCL

Sequence of IKKε (Q14164 whole entry): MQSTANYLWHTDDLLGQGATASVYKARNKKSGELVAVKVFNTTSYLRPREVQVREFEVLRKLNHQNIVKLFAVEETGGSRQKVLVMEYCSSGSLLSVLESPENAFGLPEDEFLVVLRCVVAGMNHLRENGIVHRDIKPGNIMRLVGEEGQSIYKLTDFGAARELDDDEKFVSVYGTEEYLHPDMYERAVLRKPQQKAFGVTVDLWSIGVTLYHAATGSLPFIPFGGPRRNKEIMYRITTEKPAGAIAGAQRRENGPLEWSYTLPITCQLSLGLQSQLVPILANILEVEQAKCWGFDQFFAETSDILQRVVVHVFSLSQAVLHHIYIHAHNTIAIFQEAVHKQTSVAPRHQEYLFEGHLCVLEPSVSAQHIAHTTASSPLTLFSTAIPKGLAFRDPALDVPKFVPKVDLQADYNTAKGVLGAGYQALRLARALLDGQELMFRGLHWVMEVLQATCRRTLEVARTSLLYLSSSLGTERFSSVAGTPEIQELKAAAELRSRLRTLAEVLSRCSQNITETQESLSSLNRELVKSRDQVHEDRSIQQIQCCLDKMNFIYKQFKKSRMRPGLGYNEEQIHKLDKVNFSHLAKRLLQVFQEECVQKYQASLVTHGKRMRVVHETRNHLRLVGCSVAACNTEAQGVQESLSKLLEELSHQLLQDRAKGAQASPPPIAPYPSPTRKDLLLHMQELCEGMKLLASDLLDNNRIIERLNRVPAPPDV

Row | pIC50 (IKKε) | pIC50 (TBK1) | SMILES
1 | 7.73 | 8.23 | Cc1cc(N2CCOCC2)ccc1-c1cc2c(-c3ccc(OC4CCOCC4)c(C#N)c3)ccnc2[nH]1 [Example 124, 5-(2-(2-methyl-4-morpholinophenyl)-1H-pyrrolo[2,3-b]pyridin-4-yl)-2-((tetrahydro-2H-pyran-4-yl)oxy)benzonitrile]
2 | 6.96 | 7.54 | N#Cc1cc(-c2ccnc3[nH]c(-c4ccc(N5CCOCC5)cc4)nc23)ccc1OC1CCNCC1 [Example 197, 5-(2-(4-morpholinophenyl)-3H-imidazo[4,5-b]pyridin-7-yl)-2-(piperidin-4-yloxy)benzonitrile]
3 | < 6.00 | 8.02 | N#Cc1cc(-c2ccnc3[nH]c(-c4ccc5c(c4)C(=O)NC5)cc23)ccc1OC1CCOCC1 [Example 74, 5-(2-(3-oxoisoindolin-5-yl)-1H-pyrrolo[2,3-b]pyridin-4-yl)-2-((tetrahydro-2H-pyran-4-yl)oxy)benzonitrile]
4 | 8.92 | 8.73 | CN1CCN(c2ccc(-c3nc4c(-c5ccc(OC6CCOCC6)c(C#N)c5)ccnc4[nH]3)cc2)CC1 [Example 306, 5-(2-(4-(4-methylpiperazin-1-yl)phenyl)-3H-imidazo[4,5-b]pyridin-7-yl)-2-((tetrahydro-2H-pyran-4-yl)oxy)benzonitrile]
5 | 6.49 | 7.87 | N#Cc1cc(-c2cc3c(-c4ccc(N5CC(O)C5)c(C#N)c4)ncnc3[nH]2)ccc1N1CC(O)C1 [Example 230, 5,5′-(7H-pyrrolo[2,3-d]pyrimidine-4,6-diyl)bis(2-(3-hydroxyazetidin-1-yl)benzonitrile)]
6 | 7.94 | 8.49 | N#Cc1cc(-c2ccnc3[nH]c(-c4ccc(N5CCOCC5)cc4)cc23)ccc1OC1CCOCC1 [Example 48, 5-(2-(4-morpholinophenyl)-1H-pyrrolo[2,3-b]pyridin-4-yl)-2-((tetrahydro-2H-pyran-4-yl)oxy)benzonitrile]
7 | 6.74 | 7.60 | N#Cc1cc(-c2ccnc3[nH]c(-c4ccc(N5CCOCC5)cc4)cc23)ccc1N1CCCC1=O [Example 13, 5-(2-(4-morpholinophenyl)-1H-pyrrolo[2,3-b]pyridin-4-yl)-2-(2-oxopyrrolidin-1-yl)benzonitrile]
8 | 8.50 | 8.85 | CS(=O)(=O)N1CCN(c2ccc(-c3cc4c(-c5ccc(OC6CCOCC6)c(C#N)c5)ncnc4[nH]3)cc2)CC1 [Example 215, 5-(6-(4-(4-(methylsulfonyl)piperazin-1-yl)phenyl)-7H-pyrrolo[2,3-d]pyrimidin-4-yl)-2-((tetrahydro-2H-pyran-4-yl)oxy)benzonitrile]
9 | 7.81 | 8.48 | N#Cc1cc(-c2ccnc3[nH]c(-c4ccc(N5CCOCC5)cc4)cc23)ccc1N1CC(O)C1 [Example 193, 2-(3-hydroxyazetidin-1-yl)-5-(2-(4-morpholinophenyl)-1H-pyrrolo[2,3-b]pyridin-4-yl)benzonitrile]
10 | 7.15 | 7.37 | N#Cc1cc(-c2ncnc3[nH]c(-c4ccc(OCCN5CCCC5)cc4)cc23)ccc1N1CC(O)C1 [Example 227, 2-(3-hydroxyazetidin-1-yl)-5-(6-(4-(2-(pyrrolidin-1-yl)ethoxy)phenyl)-7H-pyrrolo[2,3-d]pyrimidin-4-yl)benzonitrile]

Second part, the molecule before the results:

Row | SMILES | pIC50 (IKKε) | pIC50 (TBK1)
11 | N#Cc1cc(-c2ccnc3[nH]c(C4=CCN(C(=O)CO)C4)cc23)ccc1OC1CCOCC1 [Example 182, 5-(2-(1-(2-hydroxyacetyl)-2,5-dihydro-1H-pyrrol-3-yl)-1H-pyrrolo[2,3-b]pyridin-4-yl)-2-((tetrahydro-2H-pyran-4-yl)oxy)benzonitrile] | 7.45 | 7.83
12 | N#Cc1cc(-c2ncnc3[nH]c(-c4ccc(N5CCOCC5)c(F)c4)nc23)ccc1OC1CCN(C(=O)CO)CC1 [Example 241, 5-(8-(3-fluoro-4-morpholinophenyl)-9H-purin-6-yl)-2-((1-(2-hydroxyacetyl)piperidin-4-yl)oxy)benzonitrile] | 8.58 | 8.89
13 | COc1cc(-c2cc3c(-c4ccc(OC5CCNCC5(F)F)c(C#N)c4)ncnc3[nH]2)ccc1N1CCN(C2COC2)CC1 (centres unmarked) [Example 140, 2-((3,3-difluoropiperidin-4-yl)oxy)-5-(6-(3-methoxy-4-(4-(oxetan-3-yl)piperazin-1-yl)phenyl)-7H-pyrrolo[2,3-d]pyrimidin-4-yl)benzonitrile] | 7.48 | 8.45
14 | N#Cc1cc(-c2ncnc3[nH]c(-c4ccc(OCCN5CCCC5)cc4)nc23)ccc1OC1CCN(C(=O)CO)CC1 [Example 233, 2-((1-(2-hydroxyacetyl)piperidin-4-yl)oxy)-5-(8-(4-(2-(pyrrolidin-1-yl)ethoxy)phenyl)-9H-purin-6-yl)benzonitrile] | 8.69 | 8.48
15 | N#Cc1cc(-c2ccnc3[nH]c(C(=O)Nc4ccccc4)cc23)ccc1OC1CCOCC1 [Example 61, 4-(3-cyano-4-((tetrahydro-2H-pyran-4-yl)oxy)phenyl)-N-phenyl-1H-pyrrolo[2,3-b]pyridine-2-carboxamide] | 6.95 | 6.51
16 | N#Cc1cc(-c2ncnc3[nH]c(-c4ccc(=O)[nH]c4)cc23)ccc1OC1CCOCC1 [Example 183, 5-(6-(6-oxo-1,6-dihydropyridin-3-yl)-7H-pyrrolo[2,3-d]pyrimidin-4-yl)-2-((tetrahydro-2H-pyran-4-yl)oxy)benzonitrile] | 7.46 | 7.72
17 | N#Cc1cc(-c2ccnc3[nH]c(-c4cnn(C5COC5)c4)cc23)ccc1OC1CCOCC1 [Example 6, 5-(2-(1-(oxetan-3-yl)-1H-pyrazol-4-yl)-1H-pyrrolo[2,3-b]pyridin-4-yl)-2-((tetrahydro-2H-pyran-4-yl)oxy)benzonitrile] | 8.31 | 8.50
18 | Cn1cc(-c2nc3c(-c4ccc(OC5CCOCC5)c(C#N)c4)ncnc3[nH]2)cn1 [Example 213, 5-(8-(1-methyl-1H-pyrazol-4-yl)-9H-purin-6-yl)-2-((tetrahydro-2H-pyran-4-yl)oxy)benzonitrile] | 7.52 | 7.91
19 | N#Cc1cc(-c2ncnc3[nH]c(-c4cccc(C(N)=O)c4)cc23)ccc1OC1CCOCC1 [Example 171, 3-(4-(3-cyano-4-((tetrahydro-2H-pyran-4-yl)oxy)phenyl)-7H-pyrrolo[2,3-d]pyrimidin-6-yl)benzamide] | 7.97 | 8.19
20 | CC(C)(C)n1cc(-c2cc3c(-c4ccc(OC5CCOCC5)c(C#N)c4)ccnc3[nH]2)cn1 [Example 53, 5-(2-(1-(tert-butyl)-1H-pyrazol-4-yl)-1H-pyrrolo[2,3-b]pyridin-4-yl)-2-((tetrahydro-2H-pyran-4-yl)oxy)benzonitrile] | 7.86 | 8.03
21 | N#Cc1cc(-c2ncnc3[nH]c(-c4ccc(N5CCOCC5)cc4)nc23)ccc1OC1CCN(C(=O)CO)CC1 [Example 205, 2-((1-(2-hydroxyacetyl)piperidin-4-yl)oxy)-5-(8-(4-morpholinophenyl)-9H-purin-6-yl)benzonitrile] | 8.33 | 8.68
22 | Cn1cc(-c2cc3c(-c4ccc(OC5CCOCC5)c(C#N)c4)ncnc3[nH]2)cn1 [Example 104, 5-(6-(1-methyl-1H-pyrazol-4-yl)-7H-pyrrolo[2,3-d]pyrimidin-4-yl)-2-((tetrahydro-2H-pyran-4-yl)oxy)benzonitrile] | 8.09 | 8.42
